ChEMBL document CHEMBL1137239, “Accurate prediction of the relative potencies of members of a series of kinase inhibitors using molecular docking and MM-GBSA scoring” (J Med Chem, 2006)

Target: T1, Aurora kinase A (Homo sapiens, UniProt O14965)
T1 sequence (O14965 whole entry): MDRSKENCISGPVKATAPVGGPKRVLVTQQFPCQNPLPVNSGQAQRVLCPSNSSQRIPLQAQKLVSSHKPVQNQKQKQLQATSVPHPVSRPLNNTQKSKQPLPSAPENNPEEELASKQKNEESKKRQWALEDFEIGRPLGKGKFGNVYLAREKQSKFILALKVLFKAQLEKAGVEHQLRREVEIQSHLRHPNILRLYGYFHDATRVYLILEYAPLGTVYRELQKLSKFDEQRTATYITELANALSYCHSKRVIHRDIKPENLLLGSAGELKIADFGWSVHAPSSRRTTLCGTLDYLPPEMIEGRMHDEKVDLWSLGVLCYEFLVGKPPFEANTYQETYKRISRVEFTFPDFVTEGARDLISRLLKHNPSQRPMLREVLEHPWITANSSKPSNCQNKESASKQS
Experiment: Inhibition of Aurora A

| Compound | IC50 |
| --- | --- |
| COc1cc2c(Nc3cnc(NC(=O)c4ccccc4)nc3)ncnc2cc1OC[C@@H](O)CN1CCCCC1 | 0.8 nM |
| COc1cc2c(Nc3cnc(NC(=O)c4ccc(Cc5ccccc5)c(Br)c4)nc3)ncnc2cc1OCCCN1CCOCC1 | 70 nM |
| CCCN(CCC)S(=O)(=O)c1ncc(C(=O)Nc2ncc(Nc3ncnc4cc(OCCCN5CCOCC5)c(OC)cc34)cn2)cn1 | 3900 nM |
